Results reported in paper PMC7037612, “Ketone Bodies Promote Amyloid-β1–40 Clearance in a Human in Vitro Blood–Brain Barrier Model” (International Journal of Molecular Sciences, 2020).

How the values were obtained:
BLEC monolayer = BLEC monolayer integrity: endothelial permeability to Lucifer Yellow (PeLY); type: cell-based, human
Description: No significant pH variation was observed after KB treatment compared to the control. The integrity of the BLEC monolayer after 48 h of treatment with KBs was evaluated using the method described by Dehouck et al. (1992). Each coculture condition was performed in triplicate. The fluorescent integrity marker LY was used at a final concentration of 50 μM in RH buffer to obtain the endothelial permeability coefficient (Pe) from the apical-to-basolateral compartment. The fluorescence of LY in each compartment was measured using the excitation/emission wavelength (432/538 nm) using a microplate reader (Synergy H1). In this calculation method, both the filter without cell permeability (PSf = insert filter + matrigel coating) and filter plus cell permeability (PSt = insert filter + matrigel coating + ECs) were taken into account, according to the formula: 1/PSe = 1/[…] PS is the permeability x surface area product (in microliters per minute) obtained by dividing the volume cleared from the donor to the receiver compartment (in μL) for 1 h. […] balance (%) was calculated from the amount of compound recovered in the donor and receiver compartment at the end of the experiment divided by the total amount added in the donor compartment at time zero. To be taken into account for Pe determination, the mass balance should be between 80% and 120%.

MCT1 = assay: Western blot of MCT1 protein level in BLECs; type: cell-based, human; conditions: 48 h, 20 mM AcAc, 20 mM βHB or ratio (20 mM AcAc/20 mM βHB), Western blot normalized to β-actin, at least three independent experiments
[1] = test system: [3H]inulin transport across BLECs; assay: [3H]inulin transport across BLECs (non-specific transport marker); type: cell-based, human; conditions: 400 nM [3H]inulin, 30 min, 37 °C; for effect on basolateral-to-apical transport of [3H]inulin after ratio KB treatment: 48 h ratio treatment, 200 nM RAP basolateral or 0.5 µM elacridar apical
Description: Forty-eight hours after KB treatments, the apical-to-basolateral and the basolateral-to-apical transport of Aβ1-40 across BLECs was investigated as previously described (Briefly, for apical-to-basolateral studies, filters were transferred to new 12-well plates containing 1.5 mL of RH-HSA 0.1% (the receiver solution) per well. In the insert corresponding to the apical compartment, 0.5 mL of RH-HSA 0.1% supplemented with 10 nM Aβ1-40Cy5 peptide was added (the donor solution). For basolateral-to-apical studies, filters were transferred to 12-well plates containing 1.5 mL of RH-HSA 0.1% supplemented with 10 nM fluorescent Aβ1-40Cy5 (the donor solution). In the apical compartment, 0.5 mL of RH-HSA 0.1% (the receiver solution) was added. In parallel, the apical-to-basolateral and the basolateral-to-apical transport of 400 nM [^3H]inulin was performed in the same way as the Aβ1-40Cy5 peptide transport, thus representing a paracellular marker. The BBB integrity was checked by measuring the PeLY as described in Section 4.6. […] At the end of the incubation period, aliquots of the donor and receiver solutions were collected, and the fluorescence compounds (Aβ1-40Cy5 and LY) were measured with a spectrofluorimeter (Synergy H1). The radioactivity of [^3H]inulin was measured using a scintillation counter (Hidex 300 SL, Hidex, Turku, Finland). The permeability (apparent permeability coefficient, cm.sec^−1) of Aβ1-40-Cy5 or [^3H]-inulin was calculated according to the following equation: (1) Papp = (k.V(R))/(A.60) as previously described. k was the transport rate (min^−1) defined as the slope obtained by linear regression of the cumulative fraction absorbed (FAcum) as a function of time (min), V(R) was the volume in the receiver chamber (mL), and A was the area of the filter (cm^2). Determination of the cumulative fraction absorbed (amount permeated), FAcum versus time, FAcum was calculated from: (2) FAcum = ∑ (C(Ri))/(C(Di)), where C(Ri) was the receiver concentration at the end of the interval i and C(Di) was the donor concentration at the beginning of interval i. […]

[2] = test system: Aβ1–40Cy5 peptide transport across BLECs; assay: Aβ1–40Cy5 peptide transport across BLECs; type: cell-based, human; conditions: 48 h ratio treatment; 200 nM RAP in basolateral compartment (LRP1 inhibitor) or 0.5 µM elacridar in apical compartment (P-gp inhibitor); 10 nM Aβ1–40Cy5, 30 min, 37 °C
Description: Forty-eight hours after KB treatments, the apical-to-basolateral and the basolateral-to-apical transport of Aβ1-40 across BLECs was investigated as previously described (Briefly, for apical-to-basolateral studies, filters were transferred to new 12-well plates containing 1.5 mL of RH-HSA 0.1% (the receiver solution) per well. In the insert corresponding to the apical compartment, 0.5 mL of RH-HSA 0.1% supplemented with 10 nM Aβ1-40Cy5 peptide was added (the donor solution). For basolateral-to-apical studies, filters were transferred to 12-well plates containing 1.5 mL of RH-HSA 0.1% supplemented with 10 nM fluorescent Aβ1-40Cy5 (the donor solution). […] At the end of the incubation period, aliquots of the donor and receiver solutions were collected, and the fluorescence compounds (Aβ1-40Cy5 and LY) were measured with a spectrofluorimeter (Synergy H1). The radioactivity of [^3H]inulin was measured using a scintillation counter (Hidex 300 SL, Hidex, Turku, Finland). […] Determination of the cumulative fraction absorbed (amount permeated), FAcum versus time, FAcum was calculated from: (2) FAcum = ∑ (C(Ri))/(C(Di)), where C(Ri) was the receiver concentration at the end of the interval i and C(Di) was the donor concentration at the beginning of interval i. […] The apical-to-basolateral and the basolateral-to-apical Papp were determined by Equation (1) for each molecule. […]

BLECs = assay: Immunofluorescence of tight junction proteins ZO-1 and claudin-5; type: cell-based, human; conditions: 48 h treatment
Description: After 48 h of treatments with or without KBs, BLECs were fixed and permeabilized as described in Table 1. Then, a 30-min blocking with PBS-CMF (0.2 g·L^−1 KH2PO4 , 8.0 g·L^−1 NaCl, 2.87 g·L^−1 Na2HPO4-12H2O, and 0.2 g·L^−1 KCl) with 10% (v/v) normal goat serum (NGS) was performed. Then, cells were incubated for 60 min with the primary antibody in PBS-CMF supplemented with 2% NGS at room temperature (RT), against the target protein as described in Table 1.
After three washes in PBS-CMF supplemented with 2% NGS, the cells were incubated with secondary polyclonal antibody (goat anti-rabbit Alexa 568, A11036, Molecular Probes, Eugene, OR, USA) diluted 1:500 in PBS-CMF supplemented with 2% NGS in the dark for 30 min at RT. Hoechst 33358 was used for nuclei staining. After mounting with Mowiol (Sigma-Aldrich) containing 1,4-diazabicyclo [2.2.2]octane (Sigma-Aldrich), images were taken using a Leica microscope (DMRD; Leica Microsystems, Wetzlar, Germany) and processed using ImageJ32 software.

[3] = test system: human in vitro BBB model (BLECs); assay: βHB concentration in the compartments of the in vitro BBB model; type: in vitro ADME; conditions: 20 mM βHB added apically, 48 h
Description: (§1) During this time, the glucose and βHB concentrations were measured in both the apical compartment and the basolateral compartment. The Precision-Xtra meter (Abbott Labs, Abbott Park, IL, USA) with a glucose or β-ketone sticks was used. In these assays, the glucose and βHB concentrations measured by the sticks were representative of the glucose and βHB present in the culture medium. Data were expressed in mmol·L^−1 for βHB and in g·L^−1 for glucose. The βHB concentration within BLECs was measured at 48 h following the treatment. Briefly, after medium removal, BLECs were washed twice with RH buffer and lysed with RIPA lysis buffer (Millipore Corporation, Burlington, MA, USA). The βHB concentration in the BLECs was normalized by the protein amount using Bradford assay (Bio-rad, Munich, Germany). The amount of βHB into the supernatant was assayed using β-ketone sticks, as described above. The βHB concentration was verified in the culture medium without cells at 37 °C and 5% CO2 to ensure the stability of βHB.

[4] = Stability of βHB in culture medium; type: physicochemical; conditions: 37 °C, 5% CO2, over 48 h, β-ketone sticks
Description: as §1

GLUT1 = assay: Western blot of GLUT1 protein level in BLECs; type: cell-based, human; conditions: 48 h, 20 mM βHB or ratio, Western blot normalized to β-actin, at least three independent experiments
LRP1 = assay: Western blot of LRP1 protein level in BLECs; type: cell-based, human; conditions: 48 h, 20 mM βHB or ratio, Western blot normalized to β-actin, at least three independent experiments
PICALM = assay: Western blot of PICALM protein level in BLECs; type: cell-based, human; conditions: 48 h, 20 mM βHB or ratio, Western blot normalized to β-actin, at least three independent experiments
PC12 cells = PC12 cells exposed in 0–20 mM βHB; cited from earlier work
Text: For a few years now, there has been an increased focus on the role of the transport of Aβ peptides across the blood–brain barrier (BBB). It appears that increasing the clearance or reducing the entry of Aβ peptides in the brain could be a promising therapeutic approach for counteracting the pathogenic processes observed in AD [52]. In recent years, there has been mounting interest in the possible utilization of a ketogenic diet (KD) or ketone body (KB) supplementations in the treatment of AD [53, 54]. On the basis of KBs’ beneficial effects on the CNS, and the lack of publ ...

With `CC(=O)CC(=O)O` [AcAc, acetoacetate] as the molecule, how does the “decrease in PeLY compared to the control” value (BLEC monolayer; 20 mM, 48 h treatment of BLECs, p-value ≤ 0.0001) read?
Its value is 14.6%.

And the “increase of MCT1 protein level compared to the control” value (MCT1)?
The value was 35.9%.

What about the “decrease of apical-to-basolateral [3H]inulin transport” value ([1]; after 48 h 20 mM AcAc, scintillation counting, p-value = 0.0005) of the same molecule?
The value was 12.9%.

With `COc1cc2c(cc1OC)CN(CCc1ccc(NC(=O)c3cccc4c(=O)c5cccc(OC)c5[nH]c34)cc1)CC2` [elacridar, Elacridar, reference compound] as the molecule, how does the “effect on the increased basolateral-to-apical Aβ1–40Cy5 peptide transport after ratio KB treatment” value [2] read?
The value was “abolished”.

And the “effect on basolateral-to-apical transport of [3H]inulin after ratio KB treatment” value [1]?
Its value is “not affected”.

With `OC[C@@H](O)[C@@H](O)[C@H](O)[C@H](O)CO` [mannitol] as the molecule, how does the “increase in PeLY values compared to non-treated cells” value (BLEC monolayer; mannitol treatment of the human in vitro BBB model, p-value ≤ 0.0001) read?
Its value is 620.6%.

And the “staining of tight junction proteins ZO-1 and claudin-5 (intercellular contacts)” value (BLECs)?
Its value is “interruption in the staining for ZO-1 and claudin-5 protein”.

With `CC(O)CC(=O)O` (stereo not drawn) [βHB, Beta-hydroxybutyric acid] as the molecule, how does the “βHB concentration in the BLEC” value [3] read?
The value was ~ 0.5 mM.

What about the “βHB concentration in the apical compartment” value [3] of the same molecule?
The value was ~ 8.5 mM.

And the “βHB concentration in the basolateral compartment” value [3]?
Its value is ~ 6.6 mM.

What about the “initially added βHB not detectable” value ([3]; 37 °C, 5% CO2) of the same molecule?
The value was 21.4%.

What about the “βHB in BLECs, % of the total amount of βHB” value ([3]; 37 °C, 5% CO2, RIPA lysate, β-ketone sticks, mean of three independent experiments) of the same molecule?
The value was 2.4%.

And the “βHB in the apical (luminal) compartment, % of the total amount of βHB” value ([3]; 37 °C, 5% CO2, β-ketone sticks (Precision-Xtra meter), mean of three independent experiments)?
Its value is 42.9%.

And the “βHB in the basolateral (abluminal) compartment, % of the total amount of βHB” value ([3]; 37 °C, 5% CO2, β-ketone sticks, mean of three independent experiments)?
Its value is 33.3%.

And the “stability of βHB in the culture medium” value [4]?
Its value is “stable”.

What about the “increase of MCT1 protein level compared to the control” value (MCT1) of the same molecule?
Its value is 24.9%.

What about the “increase of GLUT1 protein level compared to the control” value (GLUT1) of the same molecule?
Its value is 51.9%.

And the “upregulation of LRP1 protein level compared to the control” value (LRP1)?
The value was 109.3%.

What about the “increase of PICALM protein level compared to the control” value (PICALM) of the same molecule?
The value was 39.1%.

What about the cell viability (PC12 cells) of the same molecule?
The cell viability was 95%.

Which “endothelial lucifer yellow permeability (PeLY), control conditions” value (BLEC monolayer; untreated BLECs, LY 50 µM in RH buffer, apical-to-basolateral, 1 h, fluorescence 432/538 nm, mean ± SEM, three independent experiments in triplicate) does the source give for Lucifer Yellow CH dilithium salt here?
The value was 0.92 ± 0.03 × 10^−3 cm∙min^−1.

B1: RAP: Receptor-associated protein, human, recombinant, E.coli; standard inhibitor for LRP1 (protein, UniProt P30533 35-357, looked up)
Alpha-2-macroglobulin …: YSREKNQPKPSPKRESGEEFRMEKLNQLWEKAQRLHLPPVRLAELHADLKIQERDELAWKKLKLDGLDEDGEKEARLIRNLNVILAKYGLDGKKDARQVTSNSLSGTQEDGLDDPRLEKLWHKAKTSGKFSGEELDKLWREFLHHKEKVHEYNVLLETLSRTEEIHENVISPSDLSDIKGSVLHSRHTELKEKLRSINQGLDRLRRVSHQGYSTEAEFEEPRVIDLWDLAQSANLTDKELEAFREELKHFEAKIEKHNHYQKQLEIAHEKLRHAESVGDGERVSRSREKHALLEGRTKELGYTVKKHLQDLSGRISRARHNEL
With B1 as the molecule, how does the “effect on the increased basolateral-to-apical Aβ1–40Cy5 peptide transport after ratio KB treatment” value [2] read?
Its value is “abolished”.

What about the “effect on basolateral-to-apical transport of [3H]inulin after ratio KB treatment” value [1] of the same molecule?
Its value is “not affected”.
